Data published in US20160045459A1, “Pharmaceutical Combination” (Gruenenthal GmbH, priority 2006, published 2016).
Read-outs that look alike come from different tables or passages of the source.

Test system: rat
Test: Randall-Selitto test in rats (Carrageenin-induced oedema, model for inflammatory pain), with isobolographic analysis of fixed ratio combinations
Assay type: in vivo
Conditions: for ED50: Rattus norvegicus, confidence interval in brackets; for timepoint of peak effect: substance applied alone, A i.v., NSAIDs i.p.
Experimental: The weight ratios of the components (a) and (b) that will lead to a supra-additive effect (synergistic effect) of the inventive pharmaceutical composition may be determined via the test of Randall and Selitto as described in Arch. Int. Pharmacodyn., 1957, 111: 409 to 419, which is a model for inflammatory pain. The respective part of the literature is hereby incorporated by reference and forms part of the present disclosure.
By means of injection of 0.1 ml of Carrageenin-suspension ventrally into a hind paw of a rat an oedema is induced, on which pain is generated 4 hours later by continuously increasing pressure with a stamp (2 mm tip diameter). The antinociceptive and antihyperalgesic activity of the tested substance is determined at different points in time after administration of the substance. The measured value to be determined and at the same time also the end point of the pain test is the pressure at which the vocalisation reaction of the rat occurs. The percentage maximum possible effect (% MPE) is calculated. The maximum pressure of the stamp is 250 g. The group size is n=10.
The interactions studies presented herein were performed using equieffective doses of the two components, calculated from the ratio of the respective ED50 values of the components if administered alone.
The application route was intravenous (i.v.) for (1R,2R)-3-(3-Dimethylamino-1-ethyl-2-methyl-propyl)-phenol (A) and intraperitoneal (i.p.) for the NSAIDs Diclofenac-sodium and Ibuprofen. […] According to their respective timepoint of peak effect, (1R,2R)-3-(3-Dimethylamino-1-ethyl-2-methyl-propyl)-phenol was applied 15 min and Diclofenac-Sodium and Ibuprofen 30 min before timepoint of measurement of the interaction-experiments (i. e. Diclofenac-Sodium or Ibuprofen were applied 15 min before (1R,2R)-3-(3-Dimethylamino-1-ethyl-2-methyl-propyl)-phenol, respectively). Thus, the time point of ED50 calculation of the combination corresponds to the timepoint of the peak effect of the respective compound.
The application route was intravenous (i.v.) for (1R,2R)-3-(3-Dimethylamino-1-ethyl-2-methyl-propyl)-phenol (A) and intraperitoneal (i.p.) for the NSAIDs (+)-Naproxen, Ketoprofen and Metamizol-Sodium. […] According to their respective timepoint of peak effect, (1R,2R)-3-(3-Dimethylamino-1-ethyl-2-methyl-propyl)-phenol was applied 15 min and (+)-Naproxen, Ketoprofen and Metamizol-Sodium 45 min before timepoint of measurement of the interaction-experiments (i. e. (+)-Naproxen, Ketoprofen and Metamizol-Sodium were applied 30 min before (1R,2R)-3-(3-Dimethylamino-1-ethyl-2-methyl-propyl)-phenol, respectively). Thus, the time point of ED50 calculation of the combination corresponds to the timepoint of the peak effect of the respective compound.

[1] = ip, 0.5 h, study A, i.p., 30 min p. appl. (peak effect), read-out: ED50 of the NSAID applied alone
[2] = ip, 0.75 h, study B, i.p., 45 min p. appl. (peak effect), read-out: ED50 of the NSAID applied alone

SMILES | ED50 (iv, 0.25 h, read-out: ED50 of A applied alone, study A, i.v., 15 min p. appl. (peak effect)) [mg/kg] | ED50 (iv, 0.25 h, read-out: ED50 of A applied alone, study B, i.v., 15 min p. appl. (peak effect)) [mg/kg] | ED50 [1] [mg/kg] | analgesic effect of the NSAID applied alone (i.p.) | timepoint of peak effect [min p. appl.] | ED50 [2] [mg/kg]
CC[C@@H](c1cccc(O)c1)[C@@H](C)CN(C)C [A, (1R,2R)-3-(3-Dimethylamino-1-ethyl-2-methyl-propyl)-phenol] | 1.88 | 1.88 |  |  |  | 
O=C(O)Cc1ccccc1Nc1c(Cl)cccc1Cl [Diclofenac-Sodium] |  |  | 145 | dose-dependent analgesic effects | 30 | 
CC(C)Cc1ccc(C(C)C(=O)O)cc1 (centres unmarked) [Ibuprofen, 2-(4-Isobutylphenyl)propanoic acid] |  |  | 139 | dose-dependent analgesic effects | 30 | 
CC(C(=O)O)c1cccc(C(=O)c2ccccc2)c1 (centres unmarked) [Ketoprofen, 2-(3-Benzoylphenyl)propanoic acid] |  |  |  | dose-dependent analgesic effects | 45 | 224
CC1C(N(C)CS(=O)(=O)[O-])C(=O)N(c2ccccc2)N1C.[Na+] (centres unmarked) [Metamizol-Sodium, Sodium ((1,5-dimethyl-3-oxo-2-phenylpyrazolidin-4-yl)(methyl)amino)methanesulfonate] |  |  |  | dose-dependent analgesic effects | 45 | 88.1
